According to patent publication US8993786B2, “Crystalline fosamprenavir calcium and process for the preparation thereof” (Mylan Laboratories Ltd., priority 2011, dated 2015):

Columns and labels:
[1] = cited from earlier work
HIV aspartyl protease = details: cited from earlier work
[2] = Storage stability of Form A: water content by Karl Fischer; format: physicochemical
Protocol: Water content was determined on Metrohm karl-Fischer titrator (Model: 794 Basic Titrino) using pyridine free single solution (Merck, Mumbai) with sample mass between 450-550 mg.

[3] = Transformation kinetics: slurry in solvents, PXRD; format: physicochemical; details: 25-30° C., 15 h
Text: The solid samples were characterized by PXRD.

[4] = Storage stability of Form A: polymorph by PXRD; format: physicochemical
[5] = Storage stability of Form A: HPLC purity
Protocol: In yet another embodiment, physical and chemical stability of Fosamprenavir calcium Form A was determined by storing the samples at 40° C./75% relative humidity (RH), at 25° C./60% RH and at 5° C. for 6 months. The material was analyzed by PXRD, water content by Karl Fischer and HPLC for final purity.

[6] = Physical stability under drying (vacuum) and 90% RH, PXRD
Protocol: The said formic acid solvate of the present invention is characterized by their X-ray powder diffraction pattern. Thus, the X-ray diffraction patterns of said polymorphs of the invention were measured on Bruker AXS D8 Discover powder X-ray diffractometer equipped with a goniometer of θ/2θ configuration, Variol monochromator and Lynx-Eye detector. The Cu-anode X-ray tube was operated at 40 kV and 30 mA. The experiments were conducted over the 2θ range of 2.0°-50.0°, 0.030° step size and 25 seconds step time.
In yet another embodiment, the physical stability of Fosamprenavir calcium Form A was determined by storing 1.0 g of sample at 50° C. and 80° C. under vacuum and at 90% relative humidity (RH). The samples are tested by PXRD after 15 hours and 72 hours. […] Transformation kinetics of Form A was studied by suspending 1 g of Form A in appropriate solvents at 25-30° C. for 15 hours. The solid samples were characterized by PXRD.

[7] = stored for 6 months at the stress conditions of table 1

## CC(C)CN(C[C@@H](O)[C@H](Cc1ccccc1)NC(=O)O[C@H]1CCOC1)S(=O)(=O)c1ccc(N)cc1 (relative stereo) [Amprenavir, [3S-[3R*(1R*,2S*)]]-[3-[[(4-aminophenyl)sulfonyl](2-methyl-propyl)amino]-2-hydroxy-1-phenylmethyl)propyl]-tetrahydro-3-furanyl ester]
[1]
  Solubility: poor solubility

## CC(C)CN(C[C@@H](OP(=O)([O-])[O-])[C@H](Cc1ccccc1)NC(=O)O[C@H]1CCOC1)S(=O)(=O)c1ccc(N)cc1.[Ca+2] [Fosamprenavir Calcium, Calcium (3S) tetrahydro-3-furanyl (1S,2R)-3-[[(4-aminophenyl)sulfonyl](isobutyl)amino]-1-benzyl-2-(phosphonooxy)propylcarbamate]
[1]; pH range of the gastro-intestinal tract
  Solubility compared to amprenavir: increased solubility
HIV aspartyl protease
  HIV aspartyl protease inhibitory activity: has HIV aspartyl protease inhibitory activity

## CC(C)CN(C[C@@H](OP(=O)([O-])[O-])[C@H](Cc1ccccc1)NC(=O)O[C@H]1CCOC1)S(=O)(=O)c1ccc(N)cc1.[Ca+2] [Fosamprenavir calcium Form A, Calcium (3S) tetrahydro-3-furanyl (1S,2R)-3-[[(4-aminophenyl)sulfonyl](isobutyl)amino]-1-benzyl-2-(phosphonooxy)propylcarbamate]
[2]; at 5° C., 1st Month
  Water content (% w/w): 3.5 % w/w
[2]; at 5° C., 2nd Month
  Water content (% w/w): 4.4 % w/w
[2]; at 5° C., 3rd Month
  Water content (% w/w): 4.0 % w/w
[2]; at 5° C., 6th Month
  Water content (% w/w): 3.5 % w/w
[2]; at 5° C., 15 days
  Water content (% w/w): 3.6 % w/w
[2]; at 5° C., Initial
  Water content (% w/w): 4.2 % w/w
[2]; at 25° C./60% RH, 1st Month
  Water content (% w/w): 3.6 % w/w
[2]; at 25° C./60% RH, 2nd Month
  Water content (% w/w): 3.7 % w/w
[2]; at 25° C./60% RH, 3rd Month
  Water content (% w/w): 3.9 % w/w
[2]; at 25° C./60% RH, 6th Month
  Water content (% w/w): 3.5 % w/w
[2]; at 25° C./60% RH, 15 days
  Water content (% w/w): 3.7 % w/w
[2]; at 25° C./60% RH, Initial
  Water content (% w/w): 4.2 % w/w
[2]; at 40° C./75% RH, 1st Month
  Water content (% w/w): 3.5 % w/w
[2]; at 40° C./75% RH, 2nd Month
  Water content (% w/w): 3.9 % w/w
[2]; at 40° C./75% RH, 3rd Month
  Water content (% w/w): 3.8 % w/w
[2]; at 40° C./75% RH, 6th Month
  Water content (% w/w): 3.0 % w/w
[2]; at 40° C./75% RH, 15 days
  Water content (% w/w): 3.5 % w/w
[2]; at 40° C./75% RH, Initial
  Water content (% w/w): 4.2 % w/w
[2]; [7]
  Change in moisture content on storage: no substantial increase in moisture content
[3]; Slurry in IPE
  Result (polymorph by PXRD): Form A
[3]; Slurry in acetone
  Result (polymorph by PXRD): Form A
[3]; Slurry in ethyl acetate
  Result (polymorph by PXRD): Form A
[3]; Slurry in n-Heptane
  Result (polymorph by PXRD): Form A
[4]; at 5° C., 1st Month
  PXRD: Form A
[4]; at 5° C., 2nd Month
  PXRD: Form A
[4]; at 5° C., 3rd Month
  PXRD: Form A
[4]; at 5° C., 6th Month
  PXRD: Form A
[4]; at 5° C., 15 days
  PXRD: Form A
[4]; at 5° C., Initial
  PXRD: Form A
[4]; at 25° C./60% RH, 1st Month
  PXRD: Form A
[4]; at 25° C./60% RH, 2nd Month
  PXRD: Form A
[4]; at 25° C./60% RH, 3rd Month
  PXRD: Form A
[4]; at 25° C./60% RH, 6th Month
  PXRD: Form A
[4]; at 25° C./60% RH, 15 days
  PXRD: Form A
[4]; at 25° C./60% RH, Initial
  PXRD: Form A
[4]; at 40° C./75% RH, 1st Month
  PXRD: Form A
[4]; at 40° C./75% RH, 2nd Month
  PXRD: Form A
[4]; at 40° C./75% RH, 3rd Month
  PXRD: Form A
[4]; at 40° C./75% RH, 6th Month
  PXRD: Form A
[4]; at 40° C./75% RH, 15 days
  PXRD: Form A
[4]; at 40° C./75% RH, Initial
  PXRD: Form A
[4]; [7]
  Change in PXRD pattern on storage: no change in PXRD pattern
[5]; at 5° C., 1st Month
  HPLC purity (%): 99.85%
[5]; at 5° C., 2nd Month
  HPLC purity (%): 99.86%
[5]; at 5° C., 3rd Month
  HPLC purity (%): 99.86%
[5]; at 5° C., 6th Month
  HPLC purity (%): 99.86%
[5]; at 5° C., 15 days
  HPLC purity (%): 99.85%
[5]; at 5° C., Initial
  HPLC purity (%): 99.85%
[5]; at 25° C./60% RH, 1st Month
  HPLC purity (%): 99.85%
[5]; at 25° C./60% RH, 2nd Month
  HPLC purity (%): 99.86%
[5]; at 25° C./60% RH, 3rd Month
  HPLC purity (%): 99.87%
[5]; at 25° C./60% RH, 6th Month
  HPLC purity (%): 99.85%
[5]; at 25° C./60% RH, 15 days
  HPLC purity (%): 99.85%
[5]; at 25° C./60% RH, Initial
  HPLC purity (%): 99.85%
[5]; at 40° C./75% RH, 1st Month
  HPLC purity (%): 99.85%
[5]; at 40° C./75% RH, 2nd Month
  HPLC purity (%): 99.85%
[5]; at 40° C./75% RH, 3rd Month
  HPLC purity (%): 99.86%
[5]; at 40° C./75% RH, 6th Month
  HPLC purity (%): 99.86%
[5]; at 40° C./75% RH, 15 days
  HPLC purity (%): 99.84%
[5]; at 40° C./75% RH, Initial
  HPLC purity (%): 99.85%
[5]; [7]
  Degradation on storage: no significant degradation
[6]; 50° C. and 80° C. under vacuum and 90% RH, after 15 hours and 72 hours
  Change in polymorph: no change in polymorph
[6]; 90% RH, 15 h
  Result (polymorph by PXRD): Form A
[6]; 90% RH, 72 h
  Result (polymorph by PXRD): Form A
[6]; Drying at 50° C. under vacuum, 15 h
  Result (polymorph by PXRD): Form A
[6]; Drying at 50° C. under vacuum, 72 h
  Result (polymorph by PXRD): Form A
[6]; Drying at 80° C. under vacuum, 15 h
  Result (polymorph by PXRD): Form A
[6]; Drying at 80° C. under vacuum, 72 h
  Result (polymorph by PXRD): Form A
[6]; different stress conditions (Table 2)
  Physical stability: physically stable
